{"source": "patent US8900880B2", "about": "“Viral citrullinated peptides and uses thereof” (Toscana Biomarkers S.R.L., priority 2009, dated 2014)", "key": {"[1]": {"tested_on": "anti-CP IgG antibodies in RA patients' serum", "conditions": "cut-off 97.5th percentile of normal controls; for anti-CP MAP antibodies found in the RA cohort: 100 RA patients, IgG", "experimental": "The ability to recognize specific antibodies in RA patients by MAP of formula (V), in comparison with the MAP of formula (VI) was evaluated by ELISA.\nMAP of formula (V) and MAP of formula (VI) were diluted respectively to a concentration of 20 μg/ml and 5 μg/ml in PBS, loaded into the wells of a polystyrene micro-titration plate (50 μl/well), and left overnight at +4° C. Upon completion of the coating period, the wells were treated for 1 hour at RT with 3% BSA in PBS. The patients' serum samples (diluted 1:200 in a buffer constituted by 1% BSA, 0.05% Tween X-100 in PBS) were then loaded onto the plate (50 μl/well) and left to incubate for 3 hours at RT. After the incubation period, one washing was performed with 1% PBS Tween X-100 and two washings were performed with PBS (150 μl/well). An anti human-IgG antibody conjugated to the enzyme alkaline phosphatase (50 μl/well), diluted 1:3000 in 1% PBS BSA, 0.05% Tween X-100, was incubated for 3 hours at RT with stirring. Upon completion of the incubation, after three washings as described above, p-nitrophenyl phosphate was added to the wells and the absorbance at a wavelength of 405 nm was determined. The results of the test were expressed as the percentage of positivity, calculated by dividing the absorbance of each serum sample by the absorbance of a positive serum sample the value of which was set arbitrarily at 100.\nSerum samples of 100 patients suffering from RA were tested by this method."}, "[2]": {"tested_on": "autoantibodies in RA sera", "experiment": "79 RA patients tested for anti-CCP2, anti-CCP3, anti-VCP1 and anti-VCP2 (FIG. 1)", "format": "binding, human", "conditions": "for RA sera containing antibodies reacting with either one of the two MAP: comparison of MAP of formula (V) and MAP of formula (VI); for anti-CCP2 and anti-CCP3 negative sera positive to the peptide: of 79 RA patients; for anti-CCP2 and anti-CCP3 negative serum positive to both peptides: of 79 RA patients (1/79); for positive RA sera: population of 79 RA patients", "excerpt": "FIG. 1. […] The presence of different populations of autoantibodies is depicted in the block diagram. Number of RA sera positive (+) or negative (−) to anti-CCP2, anti-CCP3, anti-VCP1 [peptide of formula (VI)], and anti-VCP2 [peptide of formula (V)] are shown above the diagram.\nNoteworthy, 7/79 (9%) anti-CCP2 and anti-CCP3 negative sera are positive to the peptide of formula (VI); 2/79 (3%) anti-CCP2 and anti-CCP3 negative sera are positive to peptide of formula (V); 1/79 (1%) anti-CCP2 and anti-CCP3 negative serum is positive to both peptides of formula (V) and formula (VI). Thus, formula (V) and (VI) allow to detect antibodies in a subgroup of anti-CCP negative RA patients (FIG. 1)."}, "[3]": {"tested_on": "anti-VCP1 antibodies in RA and control sera", "conditions": "cited from earlier work"}, "[4]": {"tested_on": "anti-CP antibodies (IgG, IgM, IgA) in patients' serum samples", "experimental": "The MAP of the citrullinated peptide antigens according to the invention was diluted to a concentration of 20 μg/ml in phosphate buffered saline (PBS) and loaded into the wells of a polystyrene micro-titration plate (50 μl/well). […] Upon completion of the coating period, the wells containing the antigen, plus an equal number of wells which were used as controls, were treated for 1 hour at room temperature (RT) with 3% bovine serum albumin (BSA) in PBS. The patients' serum samples (diluted 1:200 in a buffer constituted by 1% BSA, 0.05% Tween X-100 in PBS) were then loaded onto the plate (50 μl/well) and left to incubate for 3 hours at RT. After the incubation period, one washing was performed with 1% PBS Tween X-100 and two washings were performed with PBS (150 μl/well). […] The antibody (50 μl/well) was then incubated for 3 hours at RT with agitation. Upon completion of the incubation, after three washings as described above, the alkaline phosphatase substrate (p-nitrophenyl phosphate) was added to the wells and, in the presence of the enzyme, it produced a yellow product measurable by spectrophotometric techniques at a wavelength of 405 nm; its quantity was proportional to the titre of antibodies bound. The results of the test were expressed as the percentage of positivity, calculated by dividing the absorbance of each serum sample by the absorbance of a positive serum sample the value of which was set arbitrarily at 100.\nSerum samples of 104 patients suffering from RA, 97 normal healthy subjects (NHS), and 194 disease controls (systemic lupus erythematosus, systemic scleroderma, Sjogren syndrome, mixed cryoglobulinemia, psoriasic arthritis, ankylosing spondilytis, rheumatic polymialgia and infectious mononucleosis) were tested by this method using the peptide of formula (V)."}, "[5]": {"tested_on": "anti-citrullinated peptides/proteins antibodies (ACPA) in serum", "conditions": "206 disease controls", "experimental": "The MAP of the citrullinated peptide antigens according to the invention was diluted to a concentration of 20 μg/ml in phosphate buffered saline (PBS) and loaded into the wells of a polystyrene micro-titration plate (50 μl/well). […] Upon completion of the coating period, the wells containing the antigen, plus an equal number of wells which were used as controls, were treated for 1 hour at room temperature (RT) with 3% bovine serum albumin (BSA) in PBS. The patients' serum samples (diluted 1:200 in a buffer constituted by 1% BSA, 0.05% Tween X-100 in PBS) were then loaded onto the plate (50 μl/well) and left to incubate for 3 hours at RT. After the incubation period, one washing was performed with 1% PBS Tween X-100 and two washings were performed with PBS (150 μl/well). […] Upon completion of the incubation, after three washings as described above, the alkaline phosphatase substrate (p-nitrophenyl phosphate) was added to the wells and, in the presence of the enzyme, it produced a yellow product measurable by spectrophotometric techniques at a wavelength of 405 nm; its quantity was proportional to the titre of antibodies bound. The results of the test were expressed as the percentage of positivity, calculated by dividing the absorbance of each serum sample by the absorbance of a positive serum sample the value of which was set arbitrarily at 100."}, "[6]": {"tested_on": "anti-VCP2 antibodies (IgG) from RA sera", "experiment": "ELISA of affinity-purified anti-VCP2 antibodies from RA sera (Example 5)", "format": "binding, human", "conditions": "four preparations from 4 different RA sera", "experimental": "FIG. 4. Isolation of anti-VCP2 antibodies from RA sera was performed according to the method described in example 4.\nA citrullinated peptide or MAP according to the present invention was conjugated to CNBr-activated sepharose according to standard procedures known by one skilled in the art. Total immunoglobulins from sera containing anti-CP antibodies were precipitated with 50% saturated ammonium sulfate; the precipitates were dissolved in phosphate buffer (pH 7.4) and dialyzed overnight against PBS. Enriched immunoglobulin preparations were applied to the column, and the flowthrough was collected for subsequent analysis. The column was extensively washed with 20 mM Na2HPO4, 150 mM NaCl (pH 7.2), and the antibodies bound to the column were eluted by 0.1 M glycine buffer (pH 2.8) (0.5 ml/fraction), immediately neutralized with 50 μl Tris 1M (pH 8.0), and dialyzed overnight against PBS. The anti-CP antibody content in the eluates and flowthrough was tested by ELISA."}, "[7]": {"tested_on": "anti-SmD1 IgG antibodies", "conditions": "cited from earlier work"}, "[8]": {"tested_on": "IgG antibodies in RA and NHS sera", "experiment": "ELISA with differently citrullinated EBNA-2(338-358) peptides (Example 6)", "format": "binding, human", "excerpt": "The role of the number and of the position of citrullines inside EBNA-2(338-358) sequence in the detection of specific antibodies in RA sera was investigated by means of differently citrullinated peptides (Table 1).\nIt is believed that these two positions relate to two different antigenic regions."}, "[9]": {"conditions": "WO2004087747, MAP as coating antigen"}}, "note": "Entries after “also recorded” stand apart in the source; their conditions may differ. Read-outs that look alike come from different tables or passages of the source."}
{"substance": "(G G D N H G Cit G Cit G Cit G Cit G Cit G G G Cit P G A P G)4 K2 K beta-Alanine [VCP1]", "values": [{"measurement": "anti-CP MAP antibodies found in the RA cohort", "setting": "[1]", "result": 47, "unit": "%"}, {"measurement": "RA sera containing antibodies reacting with either one of the two MAP", "setting": "[2]", "result": 15, "unit": "%"}, {"measurement": "anti-CCP2 and anti-CCP3 negative sera positive to the peptide", "setting": "[2]", "result": 9, "unit": "%"}, {"measurement": "anti-CCP2 and anti-CCP3 negative serum positive to both peptides", "setting": "[2]", "result": 1, "unit": "%"}, {"measurement": "positive RA sera", "setting": "[2]", "result": 62, "unit": "%"}, {"measurement": "anti-VCP1 antibodies found in RA sera", "setting": "[3]; Anzilotti et al. 2006, 300 RA patients", "result": 45, "unit": "%"}, {"measurement": "anti-VCP1 antibodies found in controls", "setting": "[3]; Anzilotti et al. 2006, 327 controls", "result": "less than 5%"}, {"measurement": "antibodies detected in RA sera", "setting": "[3]; Pratesi et al. 2006", "result": 50, "unit": "%"}, {"measurement": "antibodies detected in normal and disease control sera", "setting": "[3]; Pratesi et al. 2006", "result": "less than 5%"}, {"measurement": "antibodies detected in RA sera", "setting": "[3]; [9]", "result": 45, "unit": "%"}, {"measurement": "specificity", "setting": "[3]; [9]", "result": 95, "unit": "%"}]}
{"substance": "(G Q S Cit G Q S Cit G Cit G Cit G Cit G Cit G Cit G K G)4 K2 K beta-Alanine [VCP2]", "values": [{"measurement": "anti-CP antibodies found in normal healthy subjects and disease controls", "setting": "[4]; 97 NHS and 194 disease controls", "result": "less than 5%"}, {"measurement": "anti-CP IgA antibodies found in RA serum samples", "setting": "[4]; 104 RA patients (41/104), cut-off 97.5th percentile of normal controls", "result": 40, "unit": "%"}, {"measurement": "anti-CP IgM antibodies found in RA serum samples", "setting": "[4]; 104 RA patients (48/104), cut-off 97.5th percentile of normal controls", "result": 46, "unit": "%"}, {"measurement": "anti-CP IgG antibodies found in RA serum samples", "setting": "[4]; 104 RA patients (67/104), cut-off 97.5th percentile of normal controls", "result": 64, "unit": "%"}, {"measurement": "specificity in detecting ACPA in RA patients", "setting": "[5]; 100 RA, 100 NHS", "result": "high specificity"}, {"measurement": "antibodies detected in disease controls", "setting": "[5]; in particular IM and SLE", "result": "no antibodies were detected"}, {"measurement": "anti-CP MAP antibodies found in the RA cohort", "setting": "[1]", "result": 64, "unit": "%"}, {"measurement": "specificity", "setting": "[1]", "result": 95, "unit": "%"}, {"measurement": "reactivity of purified anti-VCP2 IgG with the antigen", "setting": "[6]", "result": "very high reactivity"}, {"measurement": "RA sera containing antibodies reacting with either one of the two MAP", "setting": "[2]", "result": 15, "unit": "%"}, {"measurement": "anti-CCP2 and anti-CCP3 negative sera positive to the peptide", "setting": "[2]", "result": 3, "unit": "%"}, {"measurement": "anti-CCP2 and anti-CCP3 negative serum positive to both peptides", "setting": "[2]", "result": 1, "unit": "%"}, {"measurement": "positive RA sera", "setting": "[2]", "result": 52, "unit": "%"}]}
{"substance": "EBNA-2(354-373): non deiminated sequence EBNA2(354-373) of Incaprera et al.", "values": [{"measurement": "IgG detection in IM and SLE sera", "setting": "[7]; Incaprera et al. 1998", "result": "detection of IgGs"}, {"measurement": "antibody recognition", "setting": "[7]; systemic lupus erythematosus autoimmunity", "result": "recognizes anti-SmD1 IgG antibodies"}]}
{"substance": "GQSRGQSRGRGRGRGRGRGKG [EBNA2(338-358), reference compound]", "values": [{"measurement": "reactivity of purified anti-VCP2 IgG with the antigen", "setting": "[6]", "result": "no binding"}, {"measurement": "NHS positive sera", "setting": "[8]; 23 normal healthy subjects, positive = greater than 97.5th percentile of normal control group", "result": "0/23"}, {"measurement": "RA positive sera", "setting": "[8]; 24 RA patients, positive = greater than 97.5th percentile of normal control group", "result": "3/24"}, {"measurement": "reactivity with RA sera (in words)", "setting": "[8]; 24 RA sera, relevant = more than 25% positive", "result": "does not react with RA sera; also recorded: does not recognize IgG antibodies in a relevant number of RA sera"}]}
